# Measurements: patent US6436960B1, “Farnesyl transferase inhibitors having a piperidine structure and process for preparation thereof” (LG Chemical Ltd., priority 1998, dated 2002)
# Assays:
# [1] = target: T1, Ras farnesyl transferase (Homo sapiens, UniProt P49354+P49356); experiment: in vitro inhibitory activity for Ras farnesyl transferase, H-Ras substrate; assay type: biochemical; details: recombinant Ras farnesyl transferase, H-Ras substrate, tritium-farnesylpyrophosphate, 30 minutes at 37° C.; read-out: H-Ras IC50
# T1 construct: made in house
# [2] = target: T1, Ras farnesyl transferase; experiment: in vitro inhibitory activity for Ras farnesyl transferase, K-Ras substrate; assay type: biochemical; details: recombinant Ras farnesyl transferase, K-Ras substrate; read-out: K-Ras IC50
# [3] = target: T2, Ras farnesyl transferase (Rattus norvegicus, UniProt Q02293+Q04631); experiment: in vivo (cellular) Ras farnesyl transferase inhibitory activity, Rat2 cells expressing C-Harvey-Ras; assay type: cell-based; details: Rat2 cell line expressing C-Harvey-Ras; concentration inhibiting 50% of farnesyl binding of Ras protein; read-out: H-Ras CIC50
# T2 construct: endogenous in cells; host or cells: Rat2 fibroblasts transformed with C-Harvey-Ras, or with H-Ras carrying the K-Ras C-terminal polybasic lysine domain
# Procedure, shortened: (§1)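 Transformed Rat2 cells treated with compound in 1% DMSO, labelled with [35S]methionine from 4 h onward for a further 20 h. Ras immunoprecipitated with Y13-259 and resolved by SDS-PAGE and autoradiography. CIC50 is the concentration inhibiting 50% of Ras farnesylation, from farnesylated versus unfarnesylated band intensities.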
# [4] = target: T2, Ras farnesyl transferase; experiment: in vivo (cellular) Ras farnesyl transferase inhibitory activity, Rat2 cells transformed with H-Ras fused with polybasic lysine domain of K-Ras; assay type: cell-based; details: Rat2 cell line transformed with H-Ras substituted with polybasic lysine domain at C-terminus of K-Ras; concentration inhibiting 50% of farnesyl binding; read-out: K-Ras CIC50
# Procedure, shortened: as §1
structure (smiles),measurement,setting,value
CN1CCN(C(=O)c2cn(Cc3cncn3CC3CCN(C(=O)N(C)Cc4ccccc4)CC3)cc2-c2cccc3ccccc23)CC1 [Compound 52],IC50,[1],2.3 nM
same,IC50,[2],10 nM
same,IC50,[3],50 nM
same,IC50,[4],10000 to 50000 nM
"CN1CCN(C(=O)c2cn(Cc3cncn3CC3CCN(C(=O)N(C)C)CC3)cc2-c2cccc3ccccc23)CC1 [Compound 53, 1-{1-[1-(N,N-Dimethylcarbamoyl)piperidin-4-yl]methyl-1H-imidazol-5-yl}methyl-3-(4-methylpiperazin-1-yl)carbonyl-4-(naphthalen-1-yl)-1H-pyrrole]",IC50,[1],3 nM
same,IC50,[2],8.5 nM
same,IC50,[3],50 nM
same,IC50,[4],10000 to 50000 nM
"CN1CCN(C(=O)c2cn(Cc3cncn3CC3CCN(C(=O)N4CCCc5ccccc54)CC3)cc2-c2cccc3ccccc23)CC1 [Compound 54, 3-(4-Methylpiperazin-1-yl)carbonyl-4-(naphthalen-1-yl)-1-{1-[1-(1,2,3,4-tetrahydroquinolin-1-ylcarbonyl)piperidin-4-yl]methyl-1H-imidazol-5-yl}methyl-1H-pyrrole]",IC50,[1],11 nM
same,IC50,[2],40 nM
same,IC50,[3],25 nM
same,IC50,[4],10000 to 50000 nM
"CN1CCN(C(=O)c2cn(Cc3cncn3CC3CCN(C(=O)N4CCc5ccccc5C4)CC3)cc2-c2cccc3ccccc23)CC1 [Compound 55, 3-(4-Methylpiperazin-1-yl)carbonyl-4-(naphthalen-1-yl)-1-{1-[1-(1,2,3,4-tetrahydroisoquinolin-2-ylcarbonyl)piperidin-4-yl]methyl-1H-imidazol-5-yl}methyl-1H-pyrrole]",IC50,[1],2 nM
same,IC50,[2],40 nM
same,IC50,[3],25 nM
same,IC50,[4],10000 to 50000 nM
"CN1CCN(C(=O)c2cn(Cc3cncn3CC3CCN(Cc4ccc(-c5ccccc5)cc4)CC3)cc2-c2cccc3ccccc23)CC1 [Compound 56, 1-{1-[1-(4-Biphenylmethyl)piperidin-4-yl]methyl-1H-imidazol-5-yl}methyl-3-(4-methylpiperazin-1-yl)carbonyl-4-(naphthalen-1-yl)-1H-pyrrole]",IC50,[1],5 nM
same,IC50,[2],20 nM
same,IC50,[3],50 nM
same,IC50,[4],5000 nM
"CN1CCN(C(=O)c2cn(Cc3cncn3CC3CCN(Cc4ccc(Oc5ccccc5)cc4)CC3)cc2-c2cccc3ccccc23)CC1 [Compound 57, 3-(4-Methylpiperazin-1-yl)carbonyl-4-(naphthalen-1-yl)-1-{1-[1-(4-phenoxybenzyl)piperidin-4-yl]methyl-1H-imidazol-5-yl}methyl-1H-pyrrole]",IC50,[1],11 nM
same,IC50,[2],10 nM
same,IC50,[3],25 nM
same,IC50,[4],10000 nM
